# Assay results: patent US9790496B2, “Microrna compounds and methods for modulating MIR-21 activity” (Regulus Therapeutics, Inc., priority 2011, dated 2017)
# “And” between values parts separate entries of the source, which are not always exact repeats. Equal values may be shown once.
# Tests used:
# [1] = test system: collagen 1A1 and collagen 3A1 expression in kidney, ischemia reperfusion injury (IRI) model; assay: Unilateral ischemia reperfusion injury (IRI) model: kidney collagen 1A1 and collagen 3A1 expression; format: in vivo, mouse
# Procedure: A model of ischemia reperfusion injury (IRI) is created in the mouse through unilateral or bilateral clamping of kidney arteries, which leads to tubule damage, inflammation, and fibrosis. Kidney dysfunction can occur either early (<5 days) or late (>7 days) in this model, with the early time points useful to test candidate agents for the treatment of acute kidney injury, and the later time points useful to model chronic fibrosis.
# Anti-miR-21 compounds were tested in the unilateral IRI model. Unilateral IRI was induced for a period of 30 minutes. Treatment groups were as follows: sham IRI procedure; IRI with PBS administered subcutaneously; IRI with anti-miR-21 compound 25070 administered intraperitoneally at a dose of 20 mg/kg; the 2′-fluoro/2′-MOE modified anti-miR-21 25919 administered intraperitoneally at a dose of 20 mg/kg; and a 2′-fluoro/2′ modified mismatch anti-miR-21 (having three mismatches to the sequence of miR-21) 25319 administered intraperitoneally at a dose of 20 mg/kg. PBS or anti-miR compound was administered on days 5, 6, and 7 following IRI, and animals were sacrificed 14 days after IRI. As anti-miR compound is administered 5 days following the injury to the kidney, or later, when fibrosis has already occurred to some extent, this treatment regimen is considered a therapeutic regimen, rather than a prophylactic regimen.
# Kidney tissue was collected for analysis of collagen 1A1 and collagen 3A1 expression (shown in Table O), and collagen area fraction (shown in Table P).
# A similar study was performed with the same treatment groups and additional days of treatment. In this study, treatments were administered intraperitoneally at days 5, 6, 7, 14, and 21 following the IRI procedure Animals were sacrificed on Day 27, and kidney tissue was collected for analysis of collagen 1A1 and collagen 3A1 expression, as well as collagen area fraction.
# In order to assess the flexibility of administration of the anti-miR-21 compound 25070, the activity of the compound in the 14 day study above, where anti-miR-21 was administered at […] following the IRI procedure, to a different 14 day study where anti-miR-21 was administered intraperitoneally at days 3, 5, and 7 following the IRI procedure.
# [2] = test system: ischemia reperfusion injury/nephrectomy (IR/Nx) model; assay: Ischemia reperfusion injury/nephrectomy (IR/Nx) model: urinary albumin to creatinine ratio; format: in vivo, mouse
# Description: An ischemia reperfusion injury/nephrectomy (IR/Nx) model is created in the mouse through temporary unilateral clamping of an artery in one kidney, which leads to tubule damage, inflammation, and fibrosis, followed by removal of the second kidney at a later timepoint. In this model, the acute kidney dysfunction phase is useful to test candidate agents for the treatment of acute kidney injury (i.e. up to about the first 5 days), and the later phases of kidney dysfunction are useful to model chronic fibrosis (i.e. after about the first 5 days).
# Anti-miR-21 compounds were tested in the IR/Nx model. 25109, a 6-base mismatch to miR-21, was used as a control compound ([…]; where nucleosides not followed by a subscript indicate β-deoxynucleosides; nucleosides followed by a subscript “E” indicate 2′-MOE nucleosides; nucleosides followed by a subscript “S” indicate S-cEt nucleosides; and all internucleoside linkages are phosphorothioate internucleoside linkages).
# Unilateral IR was induced for a period of 30 minutes. Treatment groups were as follows: sham IR procedure; IR with PBS administered subcutaneously; IR with mismatched control 25109 administered subcutaneously at a dose of 20 mg/kg; IR with anti-miR-21 compound 25070 administered subcutaneously at a dose of 20 mg/kg; and IR with anti-miR-21 compound 25923 administered subcutaneously at a dose of 20 mg/kg. PBS or anti-miR was administered on days 2, 3, 4, and 8 following IR. On day 8, the healthy kidney was removed by nephrectomy from each animal, and animals were sacrificed on day 9. Just prior to sacrifice, urine was collected by direct bladder puncture.
# Urinary albumin to creatinine ratio was measured in the urine from each mouse. […] The geometric mean of the albumin to creatinine ratio in each group of mice was 16 μgAlb/mgCr (nephrectomy-only control), 127 μgAlb/mgCr (IR/Nx, PBS control), 140 μgAlb/mgCr (IR/Nx, 25109 control), 40 μgAlb/mgCr (IR/Nx, 25070), and 31 μgAlb/mgCr (IR/Nx, 25923). Blood urea nitrogen and serum creatinine levels were similar across all IR/Nx mice, and were elevated relative to nephrectomy-only control mice (data not shown).
# [3] = test system: ischemia reperfusion injury/nephrectomy (IR/Nx) model; assay: Survival rate of IR/Nx model mice two days after nephrectomy; format: in vivo
# Procedure: The survival rate of IR/Nx model mice two days after nephrectomy was determined across six different experiments to determine if administration of anti-miR-21 compounds increases survival. In the first three experiments, anti-miR-21 compound was administered on days 5, 6, and 7 after ischemia reperfusion injury, and nephrectomy occurred on day 10 or day 11. In the second three experiments, anti-miR-21 compound was administered on days 2, 3, and 4, and nephrectomy occurred on day 7.
# [4] = test system: collagen 1A1 and collagen 3A1 expression in kidney, ischemia reperfusion injury (IRI) model; assay: Unilateral ischemia reperfusion injury (IRI) model: kidney collagen 1A1 and collagen 3A1 expression; format: in vivo, mouse; details: 14 day study, dosing Day 5, 6, 7, fold change relative to sham
# [5] = IRI, 14 day study, dosing Day 3, 5, 7 intraperitoneally, fold change relative to sham
# [6] = unilateral IRI, 20 mg/kg intraperitoneally on days 5, 6, 7, sacrifice 14 days after IRI, 20 mg/kg
# [7] = unilateral IRI, intraperitoneally on days 5, 6, 7, 14, 21, sacrifice Day 27
sequence,measurement,setting,value
"AECSATCSAGTCSTGAUSAAGCSTAE (ACATCAGTCTGATAAGCTA; modified nucleosides coded in name, code key not given here) [Compound 25070]",reduction of collagen 1A1 or collagen 3A1 expression relative to sham (in words),"[1]; IRI, 14 day studies, two dosing schedules compared (days 3, 5, 7 i.p.)",statistically significant reduction of collagen expression with either dosing schedule
same,"Collagen 1A1 (Normalized Expression), individual animal",[1]; [5],37.5 and 21.9 and 35.3 and 26.0 and 24.9 and 16.8 and 30.8 and 34.3 and 36.8 and 9.4 and 28.0 and 24.6
same,"Collagen 3A1 (Normalized Expression), individual animal",[1]; [5],35.3 and 23.6 and 32.1 and 25.1 and 31.3 and 18.6 and 30.3 and 37.6 and 40.0 and 9.5 and 23.2 and 28.7
same,"Collagen 1A1 (Normalized Expression), individual animal",[1]; [6],81.7 and 57.4 and 37.9 and 55.3 and 22.3 and 52.4 and 53.0 and 41.5
same,"Collagen 3A1 (Normalized Expression), individual animal",[1]; [6],57.8 and 18.1 and 39.3 and 36.0 and 20.6 and 38.6 and 33.4 and 29.7
same,"Collagen 1A1 (Normalized Expression), individual animal",[1]; [7],26.4 and 37.4 and 41.9 and 36.8 and 14.1 and 27.7 and 29.4 and 37.6
same,"Collagen 3A1 (Normalized Expression), individual animal",[1]; [7],16.4 and 27.0 and 28.5 and 19.6 and 11.3 and 19.3 and 21.4 and 23.1
same,reduction in urinary albumin to creatinine ratio (in words),"[2]; s.c. 20 mg/kg on days 2, 3, 4, 8",statistically significant reductions
same,geometric mean of the urinary albumin to creatinine ratio,"[2]; s.c. 20 mg/kg on days 2, 3, 4, 8, urine day 9, PBS control 127, nephrectomy-only 16",40 μgAlb/mgCr
same,Survival rate 2 days after Nx,"[3]; Study 4, Nx Day 7, 20 mg/kg on days 2, 3, 4 after IR",75%
same,survival rate 2 days after nephrectomy,"[3]; first three experiments: dosing days 5, 6, 7, nephrectomy day 10 or 11, PBS 55%, P=0.02",80%
same,survival rate 2 days after nephrectomy,"[3]; second three experiments: dosing days 2, 3, 4, nephrectomy day 7, PBS 52%, P=0.11",69%
same,"Collagen 1A1 (Normalized Expression), individual animal",[4],21.7 and 22.8 and 15.8 and 27.6 and 27.1 and 29.3 and 10.8 and 21.5 and 29.9 and 35.0 and 28.3 and 24.2
same,"Collagen 3A1 (Normalized Expression), individual animal",[4],24.9 and 26.3 and 13.6 and 25.4 and 32.7 and 29.9 and 9.7 and 22.2 and 33.2 and 35.4 and 32.3 and 28.9
